Source: patent EP4772186A1, “USE AND COMPOSITION OF POSTBIOTIC OF LACTOBACILLUS PARACASEI ET-22” (Inner Mongolia Yili Industrial Group Co., Ltd., priority 2023, dated 2025)

Test system: VSC concentration
Experiment: in vitro Halimeter determination of VSC concentration in saliva fermentation
Format: cell-based, halitosis subjects (saliva)
Conditions: compared with CK group, anaerobic cultivation 10 hours
Procedure: Fresh saliva was collected from 10 halitosis subjects (Halimeter index >120). Subjects were required not to consume any food or drink for 2 hours before donating saliva. Saliva was directly spat into a saliva collection tube, 5 ml per person, and mixed. The mixture was centrifuged at 4500 rpm for 10 minutes, and the supernatant was collected, aliquoted, and stored at -80°C for subsequent experimental studies.
(§1) Lysate observation group: In a 10 ml sample vial, 100 µl of saliva was added first, followed by the separate addition of ET-22 viable bacteria (1.0×10^9 CFU/ml), ET-22 heat-inactivated bacterial cells (obtained by inactivating viable bacteria at 1.0×10^9 CFU/ml), and lysate (obtained by inactivating and then filtering viable bacteria at 1.0×10^9 CFU/ml), each at 100µl. Then, 1.8 ml of SHI medium was added. After filling with nitrogen, anaerobic cultivation was performed for 10 hours. Then, the obtained culture was placed in a 60°C water bath for 30-min incubation. VSC concentration was measured using the in vitro Halimeter method.
(§2) Group of two nucleotides: In a 10 ml sample vial, 100 µl of saliva was added first, followed by the separate addition of ET-22 viable bacteria (1.0×10^9 CFU/ml), ET-22 heat-inactivated bacterial cells (obtained by inactivating viable bacteria at 1.0×10^9 CFU/ml), NAD, and FAD (500 µg/ml, 100 µg/ml, 10 µg/ml), each at 100µl. Then, 1.8 ml of SHI medium was added. After filling with nitrogen, anaerobic cultivation was performed for 10 hours. Then, the obtained culture was placed in a 60°C water bath for 30-min incubation. VSC concentration was measured using the in vitro Halimeter method.
as §2, with “five organic acids:” for “two nucleotides:”, “heat-inactivating” for “inactivating”, “CFU/ml),” for “CFU/ml), NAD,”, “five organic acid components” for “FAD”
as §2, with “Observation group” for “Group”, “four polypeptides:” for “two nucleotides:”, “heat-inactivating” for “inactivating”, “CFU/ml),” for “CFU/ml), NAD,”, “components of four polypeptides” for “FAD”
as §1, with “Peptidoglycan” for “Lysate observation”, “peptidoglycan (peptidoglycan extracted from” for “lysate (obtained by inactivating and then filtering”, “CFU/ml).” for “CFU/ml), each at 100µl.”, “method. […]” for “method.”

Measured: VSC concentration

Cc1cc2nc3c(=O)[nH]c(=O)nc-3n(C[C@H](O)[C@H](O)[C@H](O)COP(=O)(O)OP(=O)(O)OC[C@H]3O[C@@H](n4cnc5c(N)ncnc54)[C@H](O)[C@@H]3O)c2cc1C [FAD, Flavin adenine dinucleotide (FAD)]
no significant change: high concentration (500 µg/ml) | low concentration (10 µg/ml) | medium concentration (100 µg/ml)
